Source: article PMC7996328, “Design, Synthesis, and Biological Evaluation of a Series of 5- and 7-Hydroxycoumarin Derivatives as 5-HT1A Serotonin Receptor Antagonists” (Pharmaceuticals, 2021)
“Also recorded” adds a separate entry of the source. Like-named read-outs stand apart in the source and are kept apart here.

Key:
[1] = molecular target: T1, 5-HT1A receptor (Rattus norvegicus, UniProt P19327); experiment: Antagonist activity for the 5-HT1A receptor, [35S]GTPγS assay in hippocampal homogenates; type: biochemical; details: 8-OH-DPAT 1.4 × 10^−7 M, mean ± SEM; for EC50 / EC50 (nM ± SEM): antagonistic activity
T1 construct: Hippocampal homogenates (15 μg/mL) were added to each tube as the 5-HT1A receptor source; from tissue; host or cells: rat hippocampus (male Sprague-Dawley), membrane homogenate
T1 sequence (P19327 1-422): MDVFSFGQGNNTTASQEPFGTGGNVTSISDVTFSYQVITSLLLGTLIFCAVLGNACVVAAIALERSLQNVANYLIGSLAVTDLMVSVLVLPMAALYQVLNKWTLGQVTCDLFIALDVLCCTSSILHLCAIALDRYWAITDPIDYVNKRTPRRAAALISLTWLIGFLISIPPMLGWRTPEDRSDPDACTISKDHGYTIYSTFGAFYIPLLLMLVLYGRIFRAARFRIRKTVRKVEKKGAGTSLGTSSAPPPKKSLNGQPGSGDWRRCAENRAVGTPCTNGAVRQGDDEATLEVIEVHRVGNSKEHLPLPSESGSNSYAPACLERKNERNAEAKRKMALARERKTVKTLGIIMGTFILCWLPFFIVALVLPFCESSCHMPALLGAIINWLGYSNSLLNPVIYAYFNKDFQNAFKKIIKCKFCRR
Description: Male Sprague–Dawley rats were decapitated, their brains removed, and placed on ice. Hippocampi were dissected and homogenized with a glass homogenizer in 30 vol. ice-cold TED buffer (50 mM Tris-HCl, 1 mM EDTA, 1mM dithiotheritol, pH 7.4). Next, the homogenate was centrifuged at 21,000× g for 30 min at 4 °C. […] The suspension was centrifuged again at 21,000× g for 30 min at 4 °C. The pellet was resuspended in 30 vol. TED buffer (pH 7.4) and the centrifugation step was repeated. The final pellet was suspended in 10 vol 50 mM Tris-HCl (pH 7.4) and stored at −80 °C until use.
Serial dilutions of the compounds tested (10^−10–10^−5 M) were incubated in triplicate with 0.8 nM [^35S]GTPγS in assay buffer (50 mM Tris-HCl, pH = 7.4, 1 mM EGTA, 3 mM MgCl2, 100 mM NaCl, 30 µM GDP) and 8-OH-DPAT (final concentration 1.4 × 10^−7 M) in the final assay volume of 250 µL. Hippocampal homogenates (15 μg/mL) were added to each tube as the 5-HT1A receptor source. […] Non-specific binding was determined with 10 µM of unlabeled GTPγS. […] Next, 96-well Unifilter® Plates (Perkin Elmer, Waltham, MA, USA) were presoaked for 1 h with 50 mM Tris-HCl (pH = 7.4) before harvesting. The reaction was terminated by vacuum filtration onto filter plates with the FilterMate Harvester® (Perkin Elmer, Waltham, MA, USA). The samples were then rapidly washed with 2 mL of 50 mM Tris-HCl (pH = 7.4) buffer. Filter plates were dried for 2 h at 50 °C. After drying, 45 µL of EcoScint-20 scintillant (Perkin Elmer) was added to every well. Radioactivity was counted in a Trilux MicroBeta^2 counter (Perkin Elmer). Data were analyzed with GraphPad Prism 5.0 software (GraphPad Software, San Diego, CA, USA, www.graphpad.com). Curves were fitted with a one-site non-linear regression model. Efficacy (Emax) and half maximal inhibitory concentration (IC50) were calculated from the Cheng–Prusoff equation and expressed as means ± SEM.

[2] = molecular target: T2, 5-HT2A receptor (Rattus norvegicus, UniProt P14842); experiment: 5-HT2A competition binding assay, [3H]ketanserin, frontal cortex homogenates; details: [3H]ketanserin 1 nM
T2 construct: from tissue; host or cells: rat frontal cortex (male SD), membrane homogenate
Description: Male SD rats were decapitated and their brains removed and placed on ice. Frontal cortices were homogenized with a glass homogenizer in 30 vol ice-cold homogenization buffer (50 mM Tris-HCl. 1 mM EDTA. 5 mM MgCl2. pH 7.4). Next, the homogenate was centrifuged at 20,000× g for 15 min at 4 °C. […] The suspension was again centrifuged at 20,000× g for 15 min at 4 °C. The pellet was resuspended in 10 vol. 50 mM Tris-HCl (pH 7.4) and the centrifugation step was repeated. The final pellet was suspended in 10 vol 50 mM Tris-HCl (pH 7.4) and stored at −80 °C.
Non-specific binding was determined in the presence of 10 μM mianserin. After incubation, the reaction mixture was deposited onto UniFilter-96 GF/B plates with the aid of a FilterMate-96 Harvester. Filter plates were presoaked beforehand with 0.4% PEI for 1 h. Next, each filter well was washed with 1.75 mL of 50 mM Tris-HCl (pH 7.4) and left to dry on a heating block set to 50 °C for 2 h. Then 45 µL of Microscint-20 scintillation fluid was added to each filter well and left to equilibrate overnight. Filter-bound radioactivity was counted in a MicroBeta^2 Microplate Counter. Binding curves were fitted with one site non-linear regression. Affinity was presented as the inhibitory constant (pKi ± SEM and Ki ± SEM) from two or three separate experiments.

[3] = read-out: Ki (nM ± SEM) (converted)
[4] = read-out: pKi (M ± SEM) (converted)

T2 sequence (P14842 whole entry): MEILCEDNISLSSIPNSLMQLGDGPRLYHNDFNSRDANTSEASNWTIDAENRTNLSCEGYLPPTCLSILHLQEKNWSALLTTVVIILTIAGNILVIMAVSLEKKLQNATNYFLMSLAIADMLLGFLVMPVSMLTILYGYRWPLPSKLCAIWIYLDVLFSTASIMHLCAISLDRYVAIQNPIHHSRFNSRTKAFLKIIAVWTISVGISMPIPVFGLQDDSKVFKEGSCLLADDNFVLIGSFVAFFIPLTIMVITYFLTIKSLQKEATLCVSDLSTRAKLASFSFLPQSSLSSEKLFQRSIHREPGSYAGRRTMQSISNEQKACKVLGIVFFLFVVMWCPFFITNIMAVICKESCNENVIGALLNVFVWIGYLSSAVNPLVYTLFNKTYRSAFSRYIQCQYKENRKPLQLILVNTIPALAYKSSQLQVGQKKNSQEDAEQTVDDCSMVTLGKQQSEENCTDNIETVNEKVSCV

COc1cccc(N2CCN(CCCCCOc3cc(C)cc4oc(=O)cc(C)c34)CC2)c1 [Compound 1c, 5-(5-(4-(3-methoxyphenyl)piperazin-1-yl)pentyloxy)-4,7-dimethyl-2H-chromen-2-one] gave a melting point of 103 to 105 °C, an IC50 [1] of 1.58 µM and an EC50 [1] of 1700 ± 358 nM. It also gave a Ki [2, 3] of 610 ± 139 nM.
Molecule CC(=O)c1c(OCCN2CCN(c3cc(C)cc(C)c3)CC2)ccc2c(C)cc(=O)oc12 [Compound 6h, 8-acetyl-7-(2-[4-(3,5-dimethylphenyl)piperazin-1-yl]ethoxy)-4-methylchromen-2-one] has a melting point of 120 to 121 °C, an IC50 [1] of 50.1 µM and an EC50 [1] of 47800 nM. It also gave a Ki [2, 3] of 479 ± 96 nM.
Work on CC(=O)c1c(C)cc2oc(=O)cc(C)c2c1OCCN1CCN(c2cccc(Br)c2)CC1 [Compound 4g] yielded a melting point of 127 to 128 °C, an IC50 [1] of 12.6 µM and an EC50 [1] of 11100 nM. It also gave a Ki [2, 3] of 3990 ± 745 nM.
Molecule CC(=O)c1c(C)cc2oc(=O)cc(C)c2c1OCCCCCN1CCN(c2ccccc2F)CC1 [Compound 3b, 6-acetyl-5-(5-(4-(2-fluorophenyl)piperazin-1-yl)pentyloxy)-4,7-dimethyl-2H-chromen-2-one] has a melting point of 137 to 139 °C, an IC50 [1] of 20 µM and an EC50 [1] of 19200 nM. The Ki [2, 3] was 1220 ± 166 nM and the Ki [2, 4] was 1170 nM.
For COc1cccc(N2CCN(CCOc3cc(C)cc4oc(=O)cc(C)c34)CC2)c1 [Compound 2c, 5-(2-(4-(3-methoxyphenyl)piperazin-1-yl)ethoxy)-4,7-dimethyl-2H-chromen-2-one], the melting point was 124 to 125 °C, the IC50 [1] was 20 µM and the EC50 [1] was 19100 nM. It also gave a Ki [2, 3] of 458 ± 109 nM and a Ki [2, 4] of 468 nM.
CC(=O)c1c(C)cc2oc(=O)cc(C)c2c1OCCN1CCN(c2cccc(Cl)c2Cl)CC1 [Compound 4i, 6-acetyl-5-(2-(4-(2,3-dichlorophenyl)piperazin-1-yl)ethoxy)-4,7-dimethyl-2H-chromen-2-one] gave a melting point of 162 to 163 °C, an IC50 [1] of 3.16 µM and an EC50 [1] of 3100 ± 148 nM. For the same molecule, the Ki [2, 3] was 1640 ± 344 nM.
For Cc1cc(OCCN2CCN(c3ccccc3C#N)CC2)c2c(C)cc(=O)oc2c1 [Compound 2j, 5-(2-(4-(2-cyanophenyl)piperazin-1-yl)ethoxy)-4,7-dimethyl-2H-chromen-2-one], the melting point was 127 to 129 °C, the “pIC50 ± SEM” value [1] was “no activity” and the “EC50 (nM ± SEM)” value [1] was “did not show any activity; also recorded: no activity”. The Ki [2, 3] was 5620 ± 1850 nM.
For COc1ccccc1N1CCN(CCCCCOc2ccc3c(C)cc(=O)oc3c2C(C)=O)CC1 [Compound 5a, 8-acetyl-7-(5-[4-(2-methoxyphenyl)piperazin-1-yl]penthoxy)-4-methylchromen-2-one], the melting point was 126 to 128 °C, the IC50 [1] was 0.0316 µM and the EC50 [1] was 30.5 ± 2.56 nM. The Ki [2, 3] was 343 ± 86 nM.
For CC(=O)c1c(C)cc2oc(=O)cc(C)c2c1OCCCCCN1CCN(c2cccc(Br)c2)CC1 [Compound 3g, 6-acetyl-5-(5-(4-(3-bromophenyl)piperazin-1-yl)pentyloxy)-4,7-dimethyl-2H-chromen-2-one], the melting point was 100 to 102 °C, the IC50 [1] was 1.29 µM and the EC50 [1] was 1280 ± 254 nM. It also gave a Ki [2, 3] of 664 ± 154 nM.
In the case of COc1cccc(N2CCN(CCOc3c(C(C)=O)c(C)cc4oc(=O)cc(C)c34)CC2)c1 [Compound 4c, 6-acetyl-5-(2-(4-(3-methoxyphenyl)piperazin-1-yl)ethoxy)-4,7-dimethyl-2H-chromen-2-one], the melting point is reported as 75 to 76 °C, the IC50 [1] is reported as 5.01 µM and the EC50 [1] is reported as 5010 ± 117 nM. For the same molecule, the Ki [2, 3] was 513 ± 137 nM.
In the case of Cc1ccc(C)c(N2CCN(CCOc3cc(C)cc4oc(=O)cc(C)c34)CC2)c1 [Compound 2d, 5-(2-(4-(2,5-dimethylphenyl)piperazin-1-yl)ethoxy)-4,7-dimethyl-2H-chromen-2-one], the melting point is reported as 119 to 120 °C, the “pIC50 ± SEM” value [1] is reported as “no activity” and the “EC50 (nM ± SEM)” value [1] is reported as “did not show any activity; also recorded: no activity”. It also gave a Ki [2, 3] of 7320 ± 2080 nM and a Ki [2, 4] of 7410 nM.
Molecule CC(=O)c1c(OCCCCCN2CCN(c3cc(C)cc(C)c3)CC2)ccc2c(C)cc(=O)oc12 [Compound 5h, 8-acetyl-7-(5-[4-(3,5-dimethylphenyl)piperazin-1-yl]penthoxy)-4-methylchromen-2-one] has a melting point of 113 to 115 °C, an IC50 [1] of 31.6 µM and an EC50 [1] of 32900 nM. It also gave a Ki [2, 3] of 291 ± 57 nM.
Cc1cc(OCCCCCN2CCN(c3ccccc3C#N)CC2)c2c(C)cc(=O)oc2c1 [Compound 1j, 5-(5-(4-(2-cyanophenyl)piperazin-1-yl)pentyloxy)-4,7-dimethyl-2H-chromen-2-one] showed a melting point of 148 to 149 °C, an IC50 [1] of 79.4 µM and an EC50 [1] of 74700 nM. For the same molecule, the Ki [2, 3] was 79 ± 18 nM.
Molecule CC(=O)c1c(C)cc2oc(=O)cc(C)c2c1OCCN1CCN(c2cccc(F)c2)CC1 [Compound 4e, 6-acetyl-5-(2-(4-(3-fluorophenyl)piperazin-1-yl)ethoxy)-4,7-dimethyl-2H-chromen-2-one] has a melting point of 135 to 136 °C, an IC50 [1] of 0.501 µM and an EC50 [1] of 527 ± 191 nM. The Ki [2, 3] was 3860 ± 810 nM.
With Cc1cc(C)cc(N2CCN(CCOc3cc(C)cc4oc(=O)cc(C)c34)CC2)c1 [Compound 2h, 5-(2-(4-(3,5-dimethylphenyl)piperazin-1-yl)ethoxy)-4,7-dimethyl-2H-chromen-2-one] the melting point was 149 to 150 °C, the “pIC50 ± SEM” value [1] was “no activity” and the “EC50 (nM ± SEM)” value [1] was “did not show any activity; also recorded: no activity”. The Ki [2, 3] was 2920 ± 992 nM.
Work on CC(=O)c1c(C)cc2oc(=O)cc(C)c2c1OCCCCCN1CCN(c2cc(C)cc(C)c2)CC1 [Compound 3h, 6-acetyl-5-(5-(4-(3,5-dimethylphenyl)piperazin-1-yl)pentyloxy)-4,7-dimethyl-2H-chromen-2-one] yielded a melting point of 100 to 102 °C, an IC50 [1] of 1.26 µM and an EC50 [1] of 1240 ± 112 nM. It also gave a Ki [2, 3] of 1800 ± 521 nM.
Molecule COc1cccc(N2CCN(CCCCCOc3c(C(C)=O)c(C)cc4oc(=O)cc(C)c34)CC2)c1 [Compound 3c, 6-acetyl-5-(5-(4-(3-methoxyphenyl)piperazin-1-yl)pentyloxy)-4,7-dimethyl-2H-chromen-2-one] has a melting point of 86 to 88 °C, an IC50 [1] of 1.58 µM and an EC50 [1] of 1550 ± 190 nM. The Ki [2, 3] was 492 ± 99.7 nM.
Work on CC(=O)c1c(C)cc2oc(=O)cc(C)c2c1OCCN1CCN(c2ccccc2F)CC1 [Compound 4b, 6-acetyl-5-(2-(4-(2-fluorophenyl)piperazin-1-yl)ethoxy)-4,7-dimethyl-2H-chromen-2-one] yielded a melting point of 118 to 119 °C, an IC50 [1] of 5.01 µM and an EC50 [1] of 5000 ± 218 nM. For the same molecule, the Ki [2, 3] was 7050 ± 1650 nM.
Cc1cc(OCCCCCN2CCN(c3cccc(F)c3)CC2)c2c(C)cc(=O)oc2c1 [Compound 1e, 5-(5-(4-(3-fluorophenyl)piperazin-1-yl)pentyloxy)-4,7-dimethyl-2H-chromen-2-one] showed a melting point of 101 to 102 °C, an IC50 [1] of 25.1 µM and an EC50 [1] of 24300 nM. The Ki [2, 3] was 2350 ± 673 nM.
